Measured values reported in US5753617A, “Peptide inhibitors of cellular adhesion” (Centocor, Inc., priority 1995, dated 1998).
Where a SMILES comes first, the peptide text is derived from it. Bridges are numbered along the chain shown (N, C = ends). [ ]: non-standard residue; d: D form. 2Nal = N[C@@H](Cc1ccc2ccccc2c1)C(=O)O; NMeF = CN[C@@H](Cc1ccccc1)C(=O)O; Tic = O=C(O)[C@@H]1Cc2ccccc2CN1

The compounds below were run against T1, P-selectin (Homo sapiens, UniProt P16109) (assay: Inhibition of human neutrophil adhesion to purified P-selectin immobilized on plastic wells). Details: inhibiting the binding of human neutrophils to P-selectin.
T1 construct: P-selectin is isolated from human platelet lysates; from tissue; host or cells: human platelets (outdated platelet packs from a blood bank)
T1 sequence (P16109 42-830): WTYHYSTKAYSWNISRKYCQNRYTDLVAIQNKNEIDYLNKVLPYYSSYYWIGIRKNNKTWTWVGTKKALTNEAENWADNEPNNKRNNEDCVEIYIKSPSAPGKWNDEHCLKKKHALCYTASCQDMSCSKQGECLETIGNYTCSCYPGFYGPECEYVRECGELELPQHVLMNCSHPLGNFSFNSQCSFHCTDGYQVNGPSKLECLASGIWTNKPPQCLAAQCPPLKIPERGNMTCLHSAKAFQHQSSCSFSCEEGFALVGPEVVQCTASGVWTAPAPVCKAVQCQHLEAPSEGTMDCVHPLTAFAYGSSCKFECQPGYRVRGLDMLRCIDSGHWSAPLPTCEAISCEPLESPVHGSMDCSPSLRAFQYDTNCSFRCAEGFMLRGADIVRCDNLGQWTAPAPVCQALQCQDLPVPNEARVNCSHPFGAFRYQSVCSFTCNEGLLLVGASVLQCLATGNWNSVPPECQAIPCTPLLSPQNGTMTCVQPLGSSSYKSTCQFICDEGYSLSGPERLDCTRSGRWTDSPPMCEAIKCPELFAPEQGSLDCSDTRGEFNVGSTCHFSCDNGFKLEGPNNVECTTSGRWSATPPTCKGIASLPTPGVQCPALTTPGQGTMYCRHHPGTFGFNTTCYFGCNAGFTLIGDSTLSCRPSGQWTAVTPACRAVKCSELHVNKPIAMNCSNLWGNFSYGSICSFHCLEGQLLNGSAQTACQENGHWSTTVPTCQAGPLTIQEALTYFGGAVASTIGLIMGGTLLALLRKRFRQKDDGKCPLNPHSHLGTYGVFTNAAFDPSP
Format: cell-based
Procedure, shortened: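 Isolated human neutrophils (2×10^5 per well) in HBSS with Ca2+/Mg2+ and HSA added to wells coated overnight at 4° C with platelet-derived P-selectin (5 micrograms/mL), HSA-blocked; 20 min at 22° C. Nonadherent cells removed by inverted centrifugation at 150 g; adherent cells quantified by myeloperoxidase activity.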

SMILES | IC50
CC[C@@H](C)[C@H]1NC(=O)[C@H]([C@@H](C)CC)NC(=O)[C@H](NC(=O)[C@@H](CCCCN)NC(=O)[C@H](N)CCCNC(=N)N)CSSC[C@H](C(=O)N[C@H](Cc2c[nH]c3ccccc23)C(=O)N[C@@H](C(=O)N[C@H](Cc2c[nH]c3ccccc23)C(=O)N[C@@H](C(N)=O)C(C)C)[C@H](C)O)NC1=O [(67)] (H-[dR][dK][dC]I[dI][dC][dW][dT][dW][dV]-NH2; disulfide 3-6) | 11.1 µM
CC(C)[C@@H](NC(=O)[C@@H](Cc1c[nH]c2ccccc12)NC(=O)[C@H](NC(=O)[C@@H](Cc1c[nH]c2ccccc12)NC(=O)[C@H]1CSSC[C@@H](NC(=O)[C@@H](CCCCN)NC(=O)[C@H](N)CCCNC(=N)N)C(=O)NCC(=O)N(C)[C@@H](Cc2ccccc2)C(=O)N1)[C@H](C)O)C(N)=O [(72)] (H-[dR][dK][dC]G[NMeF][dC][dW][dT][dW][dV]-NH2; disulfide 3-6) | 37.7 µM
CC(C)[C@H](NC(=O)[C@H]1CSSC[C@@H](NC(=O)[C@@H](CCCCN)NC(=O)[C@H](N)CCCNC(=N)N)C(=O)NCC(=O)N[C@@H](Cc2ccccc2)C(=O)N1)C(=O)N[C@H](Cc1c[nH]c2ccccc12)C(=O)N[C@@H](C(=O)N[C@H](Cc1c[nH]c2ccccc12)C(N)=O)[C@H](C)O [(75)] (H-[dR][dK][dC]GF[dC]V[dW][dT][dW]-NH2; disulfide 3-6) | 6 µM
CC(C)[C@@H](NC(=O)[C@H]1CCCN1C(=O)[C@H](NC(=O)[C@@H](Cc1c[nH]c2ccccc12)NC(=O)[C@H]1CSSC[C@@H](NC(=O)[C@@H](CCCCN)NC(=O)[C@H](N)CCCNC(=N)N)C(=O)NCC(=O)N[C@@H](Cc2ccccc2)C(=O)N1)[C@H](C)O)C(N)=O [(77)] (H-[dR][dK][dC]GF[dC][dW][dT][dP][dV]-NH2; disulfide 3-6) | 2270 µM
CC(C)[C@@H](NC(=O)[C@@H](Cc1c[nH]c2ccccc12)NC(=O)[C@H](NC(=O)[C@@H](Cc1c[nH]c2ccccc12)NC(=O)[C@H]1CSC[C@@H](NC(=O)[C@@H](CCCCN)NC(=O)[C@H](N)CCCNC(=N)N)C(=O)NCC(=O)N[C@@H](Cc2ccccc2)C(=O)N1)[C@H](C)O)C(N)=O [(81)] | 10.6 µM
CC(C)[C@@H](NC(=O)[C@@H](Cc1c[nH]c2ccccc12)NC(=O)[C@H](NC(=O)[C@@H]1CCCN1C(=O)[C@H]1CSSC[C@@H](NC(=O)[C@@H](CCCCN)NC(=O)[C@H](N)CCCNC(=N)N)C(=O)NCC(=O)N[C@@H](Cc2ccccc2)C(=O)N1)[C@H](C)O)C(N)=O [(82)] (H-[dR][dK][dC]GF[dC]P[dT][dW][dV]-NH2; disulfide 3-6) | 547 µM
CC(C)[C@@H](NC(=O)[C@@H](Cc1c[nH]c2ccccc12)NC(=O)[C@H](NC(=O)[C@@H](Cc1c[nH]c2ccccc12)NC(=O)[C@H]1CSSC[C@@H](NC(=O)[C@@H](CCCCN)NC(=O)[C@H](N)CCCNC(=N)N)C(=O)NCC(=O)N2Cc3ccccc3C[C@H]2C(=O)N1)[C@H](C)O)C(N)=O [(86)] (H-[dR][dK][dC]G[Tic][dC][dW][dT][dW][dV]-NH2; disulfide 3-6) | 83.4 µM
CC(C)[C@@H](NC(=O)[C@@H](Cc1c[nH]c2ccccc12)NC(=O)[C@H](NC(=O)[C@@H](Cc1c[nH]c2ccccc12)NC(=O)[C@H]1CSSC[C@@H](NC(=O)[C@@H](CCCCN)NC(=O)[C@H](N)CCCNC(=N)N)C(=O)NCC(=O)N[C@@H](Cc2ccc(O)cc2)C(=O)N1)[C@H](C)O)C(N)=O [(87)] (H-[dR][dK][dC]GY[dC][dW][dT][dW][dV]-NH2; disulfide 3-6) | 5.7 µM
CC(C)[C@@H](NC(=O)[C@@H](Cc1c[nH]c2ccccc12)NC(=O)[C@H](NC(=O)[C@@H](Cc1c[nH]c2ccccc12)NC(=O)[C@@H]1CSSC[C@@H](NC(=O)[C@@H](CCCCN)NC(=O)[C@H](N)CCCNC(=N)N)C(=O)NCC(=O)N[C@@H](Cc2ccccc2)C(=O)N1)[C@H](C)O)C(N)=O [(91)] (H-[dR][dK][dC]GFC[dW][dT][dW][dV]-NH2; disulfide 3-6) | 42.7 µM
CC[C@H](C)[C@@H]1NC(=O)[C@H](NC(=O)[C@@H](CCCCN)NC(=O)[C@H](N)CCCNC(=N)N)CSSC[C@H](C(=O)N[C@H](Cc2c[nH]c3ccccc23)C(=O)N[C@@H](C(=O)N[C@H](Cc2c[nH]c3ccccc23)C(=O)N[C@@H](C(N)=O)C(C)C)[C@H](C)O)NC(=O)[C@@H]2CCCN2C1=O [(95)] (H-[dR][dK][dC]IP[dC][dW][dT][dW][dV]-NH2; disulfide 3-6) | 26.8 µM

Continued, values first:

IC50 | SMILES
533 µM | CC(C)[C@@H](NC(=O)[C@@H](CCCCN)NC(=O)[C@H](NC(=O)[C@@H](Cc1c[nH]c2ccccc12)NC(=O)[C@H]1CSSC[C@@H](NC(=O)[C@@H](CCCCN)NC(=O)[C@H](N)CCCNC(=N)N)C(=O)NCC(=O)N[C@@H](Cc2ccccc2)C(=O)N1)[C@H](C)O)C(N)=O [(62)] (H-[dR][dK][dC]GF[dC][dW][dT][dK][dV]-NH2; disulfide 3-6)
19.3 µM | CC(C)[C@@H](NC(=O)[C@@H](Cc1ccc(O)cc1)NC(=O)[C@H](NC(=O)[C@@H](Cc1c[nH]c2ccccc12)NC(=O)[C@H]1CSSC[C@@H](NC(=O)[C@@H](CCCCN)NC(=O)[C@H](N)CCCNC(=N)N)C(=O)NCC(=O)N[C@@H](Cc2ccccc2)C(=O)N1)[C@H](C)O)C(N)=O [(63)] (H-[dR][dK][dC]GF[dC][dW][dT][dY][dV]-NH2; disulfide 3-6)
46.2 µM | CC(C)[C@@H](NC(=O)[C@@H](Cc1c[nH]c2ccccc12)NC(=O)[C@H](NC(=O)[C@@H](Cc1ccc(O)cc1)NC(=O)[C@H]1CSSC[C@@H](NC(=O)[C@@H](CCCCN)NC(=O)[C@H](N)CCCNC(=N)N)C(=O)NCC(=O)N[C@@H](Cc2ccccc2)C(=O)N1)[C@H](C)O)C(N)=O [(64)] (H-[dR][dK][dC]GF[dC][dY][dT][dW][dV]-NH2; disulfide 3-6)
3.2 µM | CC(C)[C@@H](NC(=O)[C@@H](Cc1c[nH]c2ccccc12)NC(=O)[C@H](NC(=O)[C@@H](Cc1c[nH]c2ccccc12)NC(=O)[C@H]1CSSC[C@@H](NC(=O)[C@@H](CCCCN)NC(=O)[C@H](N)CCCNC(=N)N)C(=O)NCC(=O)N[C@@H](Cc2ccc3ccccc3c2)C(=O)N1)[C@H](C)O)C(N)=O [(73)] (H-[dR][dK][dC]G[2Nal][dC][dW][dT][dW][dV]-NH2; disulfide 3-6)
50.7 µM | CC(C)[C@@H](NC(=O)[C@@H](Cc1ccc2ccccc2c1)NC(=O)[C@H](NC(=O)[C@@H](Cc1c[nH]c2ccccc12)NC(=O)[C@H]1CSC[C@@H](NC(=O)[C@@H](CCCCN)NC(=O)[C@H](N)CCCNC(=N)N)C(=O)NCC(=O)N[C@@H](Cc2ccccc2)C(=O)N1)[C@H](C)O)C(N)=O [(78)]
983 µM | CC(C)[C@@H](NC(=O)[C@@H](Cc1c[nH]c2ccccc12)NC(=O)[C@H](NC(=O)[C@@H](Cc1c[nH]c2ccccc12)NC(=O)[C@H]1CSSC[C@@H](NC(=O)[C@@H](CCCCN)NC(=O)[C@H](N)CCCNC(=N)N)C(=O)N2CCC[C@H]2C(=O)NCC(=O)N1)[C@H](C)O)C(N)=O [(83)] (H-[dR][dK][dC]PG[dC][dW][dT][dW][dV]-NH2; disulfide 3-6)
26.7 µM | CC(C)[C@@H](NC(=O)[C@H](Cc1c[nH]c2ccccc12)NC(=O)[C@H](NC(=O)[C@@H](Cc1c[nH]c2ccccc12)NC(=O)[C@H]1CSSC[C@@H](NC(=O)[C@@H](CCCCN)NC(=O)[C@H](N)CCCNC(=N)N)C(=O)NCC(=O)N[C@@H](Cc2ccccc2)C(=O)N1)[C@H](C)O)C(N)=O [(96)] (H-[dR][dK][dC]GF[dC][dW][dT]W[dV]-NH2; disulfide 3-6)
